# Reference: PubChem BioAssay (NCI)
#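 All cell lines were grown in 96-well plates and treated with compound for 48 hours. TGI denotes the concentration required for complete inhibition of growth.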
# What was measured:
# Test in all cases: DTP human tumour cell line panel, 48 h
# [1] = tested on: 786-0 renal
# [2] = tested on: A498 renal
# [3] = tested on: A549 NSCLC
# [4] = tested on: ACHN renal
# [5] = tested on: CAKI-1 renal
# [6] = tested on: COLO 205 colon
# [7] = tested on: DLD-1 colon
# [8] = tested on: DMS 114 small cell lung
# [9] = tested on: DMS 273 small cell lung
# [10] = tested on: EKVX NSCLC
# [11] = tested on: HCC-2998 colon
# [12] = tested on: HCT-116 colon
# [13] = tested on: HCT-15 colon
# [14] = tested on: HOP-18 NSCLC
# [15] = tested on: HOP-62 NSCLC
# [16] = tested on: HT29 colon
# [17] = tested on: IGROV1 ovarian
# [18] = tested on: KM12 colon
# [19] = tested on: KM20L2 colon
# [20] = tested on: LXFL 529 NSCLC
# [21] = tested on: M14 melanoma
# [22] = tested on: M19-MEL melanoma
# [23] = tested on: MALME-3M melanoma
# [24] = tested on: NCI-H226 lung
# [25] = tested on: NCI-H23 lung
# [26] = tested on: NCI-H460 lung
# [27] = tested on: NCI-H522 lung
# [28] = tested on: OVCAR-3 ovarian
# [29] = tested on: OVCAR-4 ovarian
# [30] = tested on: OVCAR-5 ovarian
# [31] = tested on: RPMI-8226 leukemia
# [32] = tested on: RXF 393 renal
# [33] = tested on: RXF-631 renal
# [34] = tested on: SF-268 CNS
# [35] = tested on: SF-295 CNS
# [36] = tested on: SF-539 CNS
# [37] = tested on: SK-MEL-2 melanoma
# [38] = tested on: SK-MEL-28 melanoma
# [39] = tested on: SK-OV-3 ovarian
# [40] = tested on: SN12C renal
# [41] = tested on: SNB-19 CNS
# [42] = tested on: SNB-75 CNS
# [43] = tested on: SNB-78 CNS
# [44] = tested on: SW-620 colon
# [45] = tested on: U251 CNS
# [46] = tested on: UACC-257 melanoma
# [47] = tested on: UACC-62 melanoma
# [48] = tested on: UO-31 renal
# [49] = tested on: CCRF-CEM leukemia
# [50] = tested on: HL-60(TB) leukemia
# [51] = tested on: HOP-92 NSCLC
# [52] = tested on: K-562 leukemia
# [53] = tested on: MOLT-4 leukemia
# [54] = tested on: OVCAR-8 ovarian
# [55] = tested on: SK-MEL-5 melanoma
# [56] = tested on: SR leukemia
# [57] = tested on: TK-10 renal
structure (smiles),measurement,setting,value
Cc1ccc(S(=O)(=O)N/N=C(/CC(=O)c2c(C)n([O-])c3ccccc3[n+]2=O)C(=O)Nc2ccc(C)c(C)c2)cc1,TGI,[1],> 100 µM
same,TGI,[2],> 100 µM
same,TGI,[3],> 100 µM
same,TGI,[4],> 100 µM
same,TGI,[5],> 100 µM
same,TGI,[6],> 100 µM
same,TGI,[7],> 100 µM
same,TGI,[8],67.2 µM
same,TGI,[9],> 100 µM
same,TGI,[10],> 100 µM
same,TGI,[11],> 100 µM
same,TGI,[12],> 100 µM
same,TGI,[13],> 100 µM
same,TGI,[14],> 100 µM
same,TGI,[15],> 100 µM
same,TGI,[16],> 100 µM
same,TGI,[17],> 100 µM
same,TGI,[18],> 100 µM
same,TGI,[19],> 100 µM
same,TGI,[20],> 100 µM
same,TGI,[21],> 100 µM
same,TGI,[22],42.6 µM
same,TGI,[23],> 100 µM
same,TGI,[24],> 100 µM
same,TGI,[25],> 100 µM
same,TGI,[26],> 100 µM
same,TGI,[27],> 100 µM
same,TGI,[28],63.1 µM
same,TGI,[29],> 100 µM
same,TGI,[30],> 100 µM
same,TGI,[31],> 100 µM
same,TGI,[32],> 100 µM
same,TGI,[33],> 100 µM
same,TGI,[34],> 100 µM
same,TGI,[35],> 100 µM
same,TGI,[36],> 100 µM
same,TGI,[37],> 100 µM
same,TGI,[38],> 100 µM
same,TGI,[39],> 100 µM
same,TGI,[40],> 100 µM
same,TGI,[41],> 100 µM
same,TGI,[42],> 100 µM
same,TGI,[43],> 100 µM
same,TGI,[44],> 100 µM
same,TGI,[45],> 100 µM
same,TGI,[46],> 100 µM
same,TGI,[47],> 100 µM
same,TGI,[48],> 100 µM
CC/C(CC(=O)CCC(=O)Nc1c(C)cccc1C)=N\NC(=O)NN,TGI,[1],> 100 µM
same,TGI,[2],> 100 µM
same,TGI,[3],> 100 µM
same,TGI,[4],> 100 µM
same,TGI,[49],> 100 µM
same,TGI,[6],> 100 µM
same,TGI,[7],> 100 µM
same,TGI,[10],> 100 µM
same,TGI,[11],> 100 µM
same,TGI,[12],> 100 µM
same,TGI,[13],> 100 µM
same,TGI,[50],> 100 µM
same,TGI,[14],> 100 µM
same,TGI,[51],> 100 µM
same,TGI,[16],> 100 µM
same,TGI,[17],> 100 µM
same,TGI,[52],> 100 µM
same,TGI,[18],> 100 µM
same,TGI,[19],> 100 µM
same,TGI,[20],> 100 µM
same,TGI,[21],> 100 µM
same,TGI,[22],> 100 µM
same,TGI,[23],> 100 µM
same,TGI,[53],> 100 µM
same,TGI,[25],> 100 µM
same,TGI,[26],> 100 µM
same,TGI,[28],> 100 µM
same,TGI,[29],> 100 µM
same,TGI,[30],> 100 µM
same,TGI,[54],> 100 µM
same,TGI,[32],> 100 µM
same,TGI,[33],> 100 µM
same,TGI,[34],> 100 µM
same,TGI,[35],> 100 µM
same,TGI,[36],> 100 µM
same,TGI,[37],> 100 µM
same,TGI,[55],> 100 µM
same,TGI,[40],> 100 µM
same,TGI,[41],> 100 µM
same,TGI,[43],> 100 µM
same,TGI,[56],> 100 µM
same,TGI,[44],> 100 µM
same,TGI,[57],> 100 µM
same,TGI,[45],> 100 µM
same,TGI,[46],> 100 µM
same,TGI,[47],> 100 µM
same,TGI,[48],> 100 µM
